These results are taken from patent US20120184006A1, “Reductase Enzymes” (UTAH STATE UNIVERSITY, priority 2011, published 2012).

The target of experiment [1] is T1, fatty acyl-CoA reductase (FACoAR) from M. aquaeolei VT8 (Marinobacter nauticus (Marinobacter aquaeolei), UniProt A1U3L3).
T1 sequence (A1U3L3 1-661): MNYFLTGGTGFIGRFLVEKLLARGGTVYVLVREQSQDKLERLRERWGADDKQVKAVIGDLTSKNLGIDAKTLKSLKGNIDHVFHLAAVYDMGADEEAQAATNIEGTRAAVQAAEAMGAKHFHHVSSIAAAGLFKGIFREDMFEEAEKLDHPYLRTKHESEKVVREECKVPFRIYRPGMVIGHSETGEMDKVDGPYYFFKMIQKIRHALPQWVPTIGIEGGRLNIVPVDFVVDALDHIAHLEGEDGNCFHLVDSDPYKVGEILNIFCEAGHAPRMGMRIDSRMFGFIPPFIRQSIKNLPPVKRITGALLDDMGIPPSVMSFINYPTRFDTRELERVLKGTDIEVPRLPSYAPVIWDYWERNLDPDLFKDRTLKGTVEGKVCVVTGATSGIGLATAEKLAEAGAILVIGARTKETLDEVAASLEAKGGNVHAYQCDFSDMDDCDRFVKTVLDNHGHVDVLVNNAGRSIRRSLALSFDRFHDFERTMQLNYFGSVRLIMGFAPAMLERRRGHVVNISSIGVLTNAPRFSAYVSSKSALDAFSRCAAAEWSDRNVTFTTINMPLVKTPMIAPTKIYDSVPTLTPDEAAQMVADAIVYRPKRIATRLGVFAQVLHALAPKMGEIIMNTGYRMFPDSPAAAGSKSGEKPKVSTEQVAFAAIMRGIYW
The experiment in a line: Continuous spectrophotometric NADPH assay (decrease of NADPH at 340 nm). Format: biochemical. The conditions noted are these: FIG. 5, NADPH assay, acyl-CoA substrate. The protocol: All assays were conducted in a total volume of 1 mL. A buffer containing 50 mM NaCl, 20 mM Tris-HCl pH 7.0, and 0.5 mg/mL BSA was prepared along with a 1 mM stock of aldehyde dissolved in dimethyl sulfoxide (DMSO) or a 0.1 mM stock of the acyl-CoA, and […] NADPH. All components including protein were degassed in sealed vials and placed under an argon atmosphere. NADPH was degassed as the solid prior to the addition of degassed buffer. Each assay was conducted by adding 75 μL of the NADPH stock, 58 μg protein for acyl-CoA assays or 15 μg protein for aldehyde assays, varying concentrations of aldehyde or acyl-CoA and buffer to bring the final volume to 1 mL. Each sample was continuously monitored for the decrease of NADPH at 340 nm on a Varian 50 Bio UV-visible spectrophotometer (Walnut Creek, Calif.). Initial rates were calculated in Excel using the linear initial rates of reaction obtained from the spectrophotometric assays by obtaining the slope from the best. In line and calculating nmol of NADPH oxidized per second. (Microsoft, Redmond, Wash.). These initial rates were used to calculate Km and Vmax values using the Igor Pro software package (Wavemetrics, Lake Oswego, Oreg.) fitting the initial rates to the Hill equation (31). NADPH specific activity assays were conducted identically as described above using a fixed 60 μM concentration of the various aldehyde substrates or 6 μM of the various acyl-CoA substrates.

For experiment [2], the target named is T1, fatty acyl-CoA reductase (FACoAR) from M. aquaeolei VT8. The experiment in a line: Continuous spectrophotometric DTNB assay (release of free CoA). It is filed as biochemical. The conditions noted are these: for Rate of Reaction (nmol NTB^2− min^−1 mg protein^−1): 6 μM of the respective CoA as substrate; for % Specific Activity of Palmitoyl-CoA: percent of the specific activity of palmitoyl-CoA, 6 μM substrate. The protocol: Buffers and solutions were prepared as described above for NADPH assays. Each assay was conducted by adding 75 μL of the 2 mg/mL NADPH stock solution in buffer, 58 μg of protein, and 10 μL of a 10 mg/mL solution of DTNB in DMSO, varying concentrations of acyl-CoA and buffer to bring the volume to 1 mL. Reduction of acyl-CoA substrate was monitored by following the increase of the 2-nitro-5-thiobenzoate (NTB^2−) dianion concentration at 412 nm. […] These initial rates were used to calculate the apparent K, and Vmax values using the Igor Pro (Wavemetrics, Lake Oswego, Oreg.) software package fitting the initial rates to the Hill equation (Equation 1) where v is the initial velocity, Vmax is the maximum calculated velocity, [S]^n is the concentration of substrate and n is the Hill coefficient, K0.5^n is the approximation of Km or the approximate substrate concentration at which half of Vmax is obtained at a specific value of the Hill coefficient n. In the case of enzyme inhibition, a modified version of the Hill equation allowing for cooperative inhibition (Equation 2) where all of the coefficients are defined as for the Hill equation and the additional [i]^n is the concentration of inhibitor and n is the Hill coefficient. The Ki^n is the approximate concentration of inhibitor it takes to double the K0.5 at a specific value of the Hill coefficient n.

Experiment [3] shares this target. The experiment in a line: Palmitoyl CoA inhibition of fatty aldehyde (cis-11-hexadecenal) reduction. Format: biochemical. The note with it: competitive inhibition of cis-11-hexadecenal reduction; 0, 1, 2, 4 μM inhibitor; fit to equation 2; read-out: apparent Ki. As to the method:
The (◯) denote assays performed with 0 μM palmitoyl CoA, ([…]) denote assays performed with 1 palmitoyl CoA, (□) denote assays performed with 2 μM palmitoyl CoA, and (Δ) denote assays performed with 4 μM palmitoyl CoA. Specific activities are plotted in units of nmol NADP^+ min^−1 mg protein^−1. All assays were conducted in triplicate and are shown with error bars indicating SEM fit to equation 1 in the materials and methods section. The apparent Ki was determined by fitting all four data sets to equation 2 in the materials and methods.
All assays were conducted in a total volume of 1 mL. A buffer containing 50 mM NaCl, 20 mM Tris-HCl pH 7.0, and 0.5 mg/mL BSA was prepared along with a 1 mM stock of aldehyde dissolved in dimethyl sulfoxide (DMSO) or a 0.1 mM stock of the acyl-CoA, and 2.0 trig/mL NADPH. […] Each sample was continuously monitored for the decrease of NADPH at 340 nm on a Varian 50 Bio UV-visible spectrophotometer (Walnut Creek, Calif.). Initial rates were calculated in Excel using the linear initial rates of reaction obtained from the spectrophotometric assays by obtaining the slope from the best. […]
Buffers and solutions were prepared as described above for NADPH assays. […] Reduction of acyl-CoA substrate was monitored by following the increase of the 2-nitro-5-thiobenzoate (NTB^2−) dianion concentration at 412 nm. […]

The test system of experiment [4] is FACoAR from M. aquaeolei VT8. The experiment in a line: Initial activity assay, products identified by TLC and GC. The note with it: 200 μM substrate, NADPH. It is filed as biochemical, Marinobacter aquaeolei VT8. The protocol: Initial activity assays were conducted using thin layer chromatography (TLC) and a gas chromatography (GC) assay similar to that described previously (29). To test activity, 0.3 mg of protein was added to a reaction vessel along with 200 μM palmitoleyl-CoA and 800 μM NADPH, NADH, NADP^+, NAD^+ in reaction buffer containing 20 mM Tris-HCl pH 7.0 and 50 mM NaCl. Reactions were allowed to proceed for 1 hr before quenching by the addition of 2 mL of hexane. The hexane water mixture was vortexed vigorously for 30 seconds before centrifuging to separate phases. The hexane phase was removed to a clean container and the solvent was removed under a stream of argon. […] The TLC plate was developed in a 2:15:90 volumetric ratio of glacial acetic acid:ethyl ether:hexane. After development, visualization was performed in a sealed jar with iodine crystals for 10 min. The TLC results were verified by GC analysis of the sample prepared in the same way and compared to retention times of known standards.

For `CCCCCCCCCCCCCCCC(=O)SCCNC(=O)CCNC(=O)[C@H](O)C(C)(C)COP(=O)(O)OP(=O)(O)OC[C@H]1O[C@@H](n2cnc3c(N)ncnc32)[C@H](O)[C@@H]1OP(=O)(O)O` [Palmitoyl-CoA], the “n (Hill coefficient)” value in experiment [1] was determined as 2.6±0.3. Also, in experiment [1] (Hill fit), the Vmax is 197±8 nmol NADP^+ min^−1 mg of protein^−1. Moreover, in experiment [2], the “Vmax when CoA release was monitored” value was around 180 nmol/min/mg, the “maximal specific activity (CoA release)” value is 115 nmol of NTB/min/mg protein, the “Rate of Reaction (nmol NTB^2− min^−1 mg protein^−1)” value is recorded as 54.7 ± 4.7 nmol NTB^2− min^−1 mg protein^−1 and the “% Specific Activity of Palmitoyl-CoA” value was found to be 100%. For the same compound, in experiment [2] (FIG. 5, DTNB assay), the “n (Hill coefficient)” value is given as 2.8±0.7. For the same compound, in experiment [2] (FIG. 5, DTNB assay, release of free CoA, Hill fit, substrate), the Vmax is reported as 115±7 nmol NTB^−2 min^−1 mg of protein^−1. The Ki in experiment [3] worked out at 1900 ± 260 nM.

`CCCCCC/C=C\CCCCCCCC(=O)SCCNC(=O)CCNC(=O)[C@H](O)C(C)(C)COP(=O)(O)OP(=O)(O)OC[C@H]1O[C@@H](n2cnc3c(N)ncnc32)[C@H](O)[C@@H]1OP(=O)(O)O` [Palmitoleyl-CoA]: in experiment [4], the “detectable product of reduction” value is given as “palmitoleyl alcohol”. Also, in experiment [2], the “Rate of Reaction (nmol NTB^2− min^−1 mg protein^−1)” value is 53.7 ± 1.1 nmol NTB^2− min^−1 mg protein^−1 and the “% Specific Activity of Palmitoyl-CoA” value was found to be 93%.
